# Experimental data: patent publication US7488720B2, “A1 adenosine receptor agonists” (CV Therapeutics, Inc., priority 2005, dated 2009)
# Test: Blood brain penetration assay (in situ brain perfusion)
# Assay type: in vivo
# Conditions: rat in situ brain perfusion, 5 μM, 1 min, left cerebrum
# Experimental: Studies of transport of the compounds of Formula I were carried out in accordance with an in situ brain perfusion technique disclosed in “Methods in Molecular medicine, Vol. 89, pp209-218, by Quentin R. Smith and David D. Allen
# Anesthesia: Cocktail of 90 mg/kg ketamine/9 mg/kg xylazine was given at a volume of […] as i.m. injection.
# Surgery and perfusion: The left common carotid artery was cannulated, the chest opened and the heart severed. The brain was perfused at 10 ml/min for a predetermined duration of time, followed by post-perfusion with perfusion solution for 30 seconds.
# A stock solution of the test drug was prepared as a solution of […] in DMSO.
# C. Treatment • 1. Three rats per group were infused with the study compounds or a control compound via the left common carotid artery. • 2. Brain and perfusion solution samples were obtained at the end of the perfusions. D. Sample Collection • 1. Brains were collected and the left hemispheres or regions thereof were segmented and flash frozen in liquid nitrogen. • 2. A sample of the perfusion solution was also taken after each perfusion into an Eppendorf tube, and stored at −80° C. in separate container from the brain samples. • 3. When necessary, prior to the perfusion, blood samples were collected in tubes prepared with study anticoagulant. Whole blood was centrifuged at 8000 rpm for 3 minutes. Plasma was collected into Eppendorf tubes and frozen at −80° C. in separate container from the brain samples. E. Analytical and Data Analysis
# Concentrations of study and marker compounds in all samples was measured using LC/MS-MS (and/or LC-UV technique when applicable) and permeability kinetics were determined.
row,SMILES,rate of penetration of the blood brain barrier [pmol/g/s]
1,"CN(C)CCCN1c2ccccc2Sc2ccc(Cl)cc21 [Chlorpromazine, reference compound]",61.5
2,"O=C(NCc1nc(NC2CCCC2)c2ncn([C@@H]3O[C@H](CO)[C@@H](O)[C@H]3O)c2n1)c1ccc(S(=O)(=O)O)cc1 [Example 6A, 4-[N-({9-[(4S,2R,3R,5R)-3,4-dihydroxy-5-(hydroxymethyl)oxolan-2-yl]-6-(cyclopentylamino)purin-2-yl}methyl)carbamoyl]benzenesulfonic acid]",0.015
3,"O=C(CS(=O)(=O)O)NCc1nc(NC2CCCC2)c2ncn([C@@H]3O[C@H](CO)[C@@H](O)[C@H]3O)c2n1 [Example 6B, N-({9-[(4S,2R,3R,5R)-3,4-dihydroxy-5-(hydroxymethyl)oxolan-2-yl]-6-(cyclopentylamino)purin-2-yl}methyl)carbamoylmethylsulfonic acid]",0.10
